Measurements: patent US11066421B1, “Synthetic cinchona alkaloids against cancer” (Ares Pharmaceuticals, LLC, priority 2021, dated 2021)

Key:
[1] = system: primary leukemia/lymphoma cells; test: Annexin V flow cytometric apoptosis assay in primary cells from patients; type: cell-based, human
Method: Apoptotic death was monitored using multiparameter flow cytometry, as previously reported (F. M. Uckun, et al., 2011, British Journal of Haematology, 153:741-752; F. M. Uckun et al., 2015, J Clin Invest., 125:1006-18). Controls included vehicle (PBS) treated cells (CON). Cells were analyzed for apoptosis using the standard quantitative flow cytometric apoptosis assay using the Annexin V-FITC Apoptosis Detection Kit from Sigma. The labeled cells were analyzed on a flow cytometer. The percent apoptosis was calculated using the formula: 100-100×(Percentage of non-apoptotic cells in test sample/Percentage of non-apoptotic cells in untreated control sample). The percentages for Annexin V FITC^−PI^− viable cells and Annexin V-FITC^+PI^+ advanced apoptotic cells for each sample are indicated in the respective quadrants of the depicted two-color fluorescence dot plots.
We examined the ability AP-5 to cause apoptotic death in freshly obtained primary cancer cells from Ficoll-Hypaque separated, highly enriched populations of primary leukemia/lymphoma cells isolated from bone marrow (BM, N=13) or peripheral blood (PB, N=13) specimens of 26 patients with hematological malignancies, 3 patients with rare forms of leukemia (one each with prolymphocytic leukemia [PLL], plasma cell leukemia [PCL], large granular cell leukemia [LGL]), one patient with chronic myeloid leukemia in blast crisis (CML-BC), including 8 patients with chronic lymphocytic leukemia (CLL)/well differentiated lymphocytic lymphoma (WDLL), one patient with acute myeloid leukemia (AML), 11 patients with B-lineage acute lymphoblastic leukemia (ALL) and 2 patients with T-lineage ALL (FIG. 1). Cells were treated with standard chemotherapeutic agents at various concentrations provided in RPMI-1640 medium supplemented with 10% fetal bovine serum (FBS) and incubated at 37° C. for 24 hr. Dexamethasone (DEQ.) was used. at 50 μg/ml, Adriamycin (ADR) at 10 μg/ml, vincristine (VCR), gemcitabine (GEM), fludarabine (FLU), methotrexate (MTX), etoposide (ETO), cytarabine (ARA-C) and cladribine (2-CDA) at 25 μg/ml. The cells were washed with serum-free RPMI-1640 medium and then processed for apoptosis assays. […]
Apoptotic death was monitored using multiparameter flow cytometry, as previously reported (F. M. Uckun et at, 2006, Brit Journal of Hematol. 135:500-8; F. M. Uckun et al., 2011, Brit Journal of hematol. 153:741-52; F. M. Uckun et al., 2015, J. Clin. Invest. 125:1006-18). Exposure of phosphatidylserine to the outer leaflet of the leukemic cell membrane was measured using fluorescein isothiocyanate (FITC)-conjugated annexin V, the natural ligand of phosphatidylserine (R&D Systems, Minneapolis, Minn., USA). […] The labelled cells were analyzed using a FACS Vantage flow cytometer (Becton Dickinson, Mountain view, CA, USA). […]

[2] = system: PC3 human prostate cancer cells; test: CB.17 SCID mouse xenograft model of human prostate cancer; type: in vivo; settings: 2 mg/kg i.p. twice daily, 5 days on 2 days off
Method: Cell Lines. Human prostate cancer cell line PC3 (ATCC CRL-1435) was obtained from American Type Culture Collection (Rockville, Md.) and maintained as a continuous cell line in DMEM supplemented with 10% fetal calf serum (FCS), 4 mm glutamine, 100 units/ml penicillin G, and […] streptomycin sulfate. All of the tissue culture reagents were obtained from Life Technologies, Inc. Inc. (Gaithersburg, Md.). Mice. Female CB.17 SCID mice were obtained from Taconic (Germantown, N.Y.) and housed in a specific-pathogen-free room located in a secure indoor facility with controlled temperature, humidity, and noise levels. Mice were housed in micro-isolator cages and fed with autoclaved rodent chow. Water was also autoclaved and supplemented with trimethoprim/sulfamethoxazol 3 days a week. The animal protocol used in this study was approved by the Drug Discovery Enterprises Animal Care and Use Committee (IACUC), and all of the animal care procedures conformed to the Guide for the Care and Use of Laboratory Animals (National Research Council, National Academy Press, Washington D.C. 1996). […] The size of subcutaneous tumors were measured on day 16 and day 18 to evaluate the ability of AP-8 to inhibit tumor growth in this SCID mouse xenograft model of prostate cancer. Tumor volumes were calculated using the formula for the volume of a prolate spheroid, V=4/3×3.14×length/2×width/2×depth/2.

[3] = 24 hr in vitro exposure, primary cells from 26 patients

| Compound | % apoptosis (Mean±SE) [1, 3] | median percentage of apoptosis [1, 3] | % apoptosis (range) ([1]; 24 hr in vitro exposure, primary cells from 26 patients, range) | potency versus standard chemotherapy drugs tested side by side ([1]; 24 hr, % apoptosis compared) | tumor progression [2] | average tumor volume ([2]; day 18, from day 7) |
| --- | --- | --- | --- | --- | --- | --- |
| 2,4,6-Tri (9-O-dihydrocinchoninyl)pyrimidine [AP-5] | 93.5±1.1% | 96.1% | 79.9-99.6% | substantially more potent than any of the 9 standard chemotherapy drugs tested side by side |  |  |
| CCC1CN2CCC1CC2C(Oc1cc(OC(c2ccnc3ccc(OC)cc23)C2CC3CCN2CC3CC)nc(OC(c2ccnc3ccc(OC)cc23)C2CC3CCN2CC3CC)n1)c1ccnc2ccc(OC)cc12 (stereo not drawn) [AP-8, 2,4,6-Tri (9-O-dihydroquinidinyl)pyrimidine] |  |  |  |  | significantly slowed down the tumor progression | 45.1±7.8 mm^3 |
